Assay results from US7452688B2, “Transformed cell with enhanced sensitivity to antifungal compound and use thereof” (Sumitomo Chemical Company, Limited, priority 2002, dated 2008).

How the values were obtained:
Format in all cases: cell-based, Saccharomyces cerevisiae
[1] = test system: AH22; experiment: Antifungal compound sensitivity test, control yeast AH22 (Example 6, Table 2); settings: absorbance at 600 nm relative to 0 ppm = 100
Text: Degrees of growths of both of the transformed budding yeasts cultured under the presence of Compounds (1) to (7) and budding yeast as a control therefor are shown in Table 2. Degrees of growths of both of the transformed budding yeasts and budding yeast as a control are expressed by a relative value in percentage, letting the absorbance at 600 nm at the concentration of the Compound of 0 ppm to be 100. It was confirmed that an inhibiting degree of growth of the transformed budding yeast TM182-BcOS1-I 365S by each test substance was grater than an inhibiting degree of growth of the transformed budding yeast AH22-BcOS1-I 365S by each test substance, and the transformed budding yeast TM182-BcOS1-I365S was a transformed cell with the enhanced sensitivity to an antifungal compound as compared with the transformed budding yeast AH22-BcOS1-I365S.

[2] = test system: transformed budding yeast AH22-StOS1; experiment: Antifungal compound sensitivity test, transformed budding yeast AH22-StOS1 (Example 16); settings: 30° C. 28 hours, relative value in percentage
Method: The transformed budding yeast AH22-StOS1 prepared in Example 15 was cultured while shaking at 30° C. for 18 hours in a Glu-Leu medium. As a control, the AH22 strain was similarly cultured while shaking at 30° C. for 18 hours in a Glu medium. The absorbance at 600 nm of each grown transformed budding yeast in a cell suspension was measured, and cell suspension diluted with sterilized distilled water to the absorbance of 0.1 was prepared. Further, a cell suspension in which the aforementioned cell suspension of the transformed budding yeast AH22-StOS1 was diluted 50-fold with a Glu-Leu medium, and a cell suspension in which the aforementioned cell suspension of the AH22 strain was diluted 50-fold with a Glu medium were prepared.
A solution in which each of Compounds (1) to (3) was dissolved in dimethylsulfoxide (DMSO) to the concentration of 6 ppm, a solution in which each of Compounds (4) and (5) was dissolved in dimethylsulfoxide (DMSO) to the concentration of 2000 ppm, and a solution in which Compounds (6) and (7) was dissolved in dimethylsulfoxide (DMSO) to the concentration of 20 ppm were prepared, and two microplates were prepared in which each 1.0 μL per well of the Compound solution and DMSO as a control were dispensed. In one microplate among them, each 100 μL of cell suspensions of the transformed budding yeast AH22-StOS1 which had been prepared by dilution as described above was dispensed, and cultured by allowing to stand at 30° C. for 28 hours. In another microplate, each 100 μL of cell suspensions of the control yeast AH22 strain which had been prepared by dilution as described above was dispensed, and cultured by allowing to stand at 30° C. for 24.5 hours. After culturing, the absorbance at 600 nm of each well was measured with a microplate reader.
(§1) A degree of growth of the transformed budding yeast is expressed as a relative value in percentage, letting the absorbance at 600 nm at the concentration of the Compound of 0 ppm to be 100. It was confirmed that an inhibiting degree of growth of the transformed budding yeast TM182-StOS1 by each test substance was grater than an inhibiting degree of growth of the transformed budding yeast AH22-StOS1 by each test substance, and the transformed budding yeast TM182-StOS1 was a transformed cell with the enhanced sensitivity to an antifungal compound as compared with the transformed budding yeast AH22-StOS1.

[3] = test system: transformed budding yeast TM182-StOS1; experiment: Antifungal compound sensitivity test of transformed budding yeast TM182-StOS1 (Example 16); settings: for Degree of growth of budding yeast TM182-StOS1 Gal-Ura-Leu medium: control medium, 30° C. 49.5 hours; for Degree of growth of budding yeast TM182-StOS1 Gul-Ura-Leu medium: 30° C. 26.5 hours
Method: Similarly, the transformed budding yeast TM182-StOS1 prepared in Example 15 was cultured at 30° C. for 18 hours in a Glu-Ura-Leu medium. The absorbance at 600 nm of the grown transformed budding yeast in a cell suspension was measured, and a cell suspension diluted with sterilized distilled water to the absorbance of 0.1 was prepared. Further, a cell suspension in which the transformed budding yeast TM182-StOS1 was diluted 50-fold with a Glu-Ura-Leu medium and, as a control, a cell suspension in which the yeast was diluted 50-fold with a Gal-Ura-Leu medium were prepared.
A solution in which each of Compounds (1) to (3) was dissolved in dimethylsulfoxide (DMSO) to the concentration of 6 ppm, a solution in which each of Compounds (4) and (5) was dissolved in dimethylsulfoxide (DMSO) to the concentration of 2000 ppm, and a solution in which each of Compounds (6) and (7) was dissolved in dimethylsulfoxide (DMSO) to the concentration of 20 ppm were prepared, and two microplates were prepared in which each 2.0 μL per well of the Compound-DMSO solution and DMSO as a control were dispensed into 2 wells. In one microplate among them, each 100 μL of cell suspensions of the transformed budding yeast TM182-StOS1 which had been prepared by dilution with a Glu-Ura-Leu medium as described above was dispensed, and cultured by allowing to stand at 30° C. for 26.5 hours. In another microplate, as described above, as a control, each 100 μL of cell suspensions of the transformed budding yeast TM182-StOS1 which had been prepared by dilution with a Gal-Ura-Leu medium was dispensed, and cultured at 30° C. for 49.5 hours. After culturing, the absorbance at 600 nm of each well was measured with a microplate reader.
as §1

Q: With `CC12CC1(C)C(=O)N(c1cc(Cl)cc(Cl)c1)C2=O` (stereo not shown) [Compound (1), Procymidone] as the compound, how does the “Degree of growth of budding yeast (%) AH22 Glu medium” value (from here on “Degree … (%) AH22 Glu medium”) ([1]; final concentration 6 ppm) read?
A: The value was 88%.

Q: And the “Degree of growth of budding yeast AH22-StOS1 Glu-Leu medium” value ([2]; final concentration 0.6 ppm)?
A: The value was 101%.

Q: And the “Degree of growth of budding yeast TM182-StOS1 Gal-Ura-Leu medium” value ([3]; final concentration 0.6 ppm)?
A: Its value is 101%.

Q: What about the “Degree of growth of budding yeast TM182-StOS1 Gul-Ura-Leu medium” value ([3]; final concentration 0.6 ppm) of the same compound?
A: The value was 67%.

Q: How did the “Degree … (%) AH22 Glu medium” value ([1]; final concentration 20 ppm) turn out when `O=[N+]([O-])c1c(Cl)c(Cl)c(Cl)c(Cl)c1Cl` [Compound (4), Quintozene] was run?
A: The value was 96%.

Q: And the “Degree of growth of budding yeast AH22-StOS1 Glu-Leu medium” value ([2]; final concentration 20 ppm)?
A: The value was 91%.

Q: And the “Degree of growth of budding yeast TM182-StOS1 Gal-Ura-Leu medium” value ([3]; final concentration 20 ppm)?
A: Its value is 99%.

Q: What about the “Degree of growth of budding yeast TM182-StOS1 Gul-Ura-Leu medium” value ([3]; final concentration 20 ppm) of the same compound?
A: The value was 7%.

Q: `CC(C)NC(=O)N1CC(=O)N(c2cc(Cl)cc(Cl)c2)C1=O` [Compound (2), Iprodione] was tested. Which “Degree … (%) AH22 Glu medium” value ([1]; final concentration 6 ppm) did it give?
A: The value was 91%.

Q: And the “Degree of growth of budding yeast AH22-StOS1 Glu-Leu medium” value ([2]; final concentration 0.6 ppm)?
A: Its value is 100%.

Q: What about the “Degree of growth of budding yeast TM182-StOS1 Gal-Ura-Leu medium” value ([3]; final concentration 0.6 ppm) of the same compound?
A: The value was 97%.

Q: What about the “Degree of growth of budding yeast TM182-StOS1 Gul-Ura-Leu medium” value ([3]; final concentration 0.6 ppm) of the same compound?
A: The value was 23%.

Q: Which “Degree … (%) AH22 Glu medium” value ([1]; final concentration 20 ppm) does the source give for `COP(=S)(OC)Oc1c(Cl)cc(C)cc1Cl` [Compound (5), Tolclofos-methyl] here?
A: Its value is 80%.

Q: And the “Degree of growth of budding yeast AH22-StOS1 Glu-Leu medium” value ([2]; final concentration 20 ppm)?
A: The value was 76%.

Q: What about the “Degree of growth of budding yeast TM182-StOS1 Gal-Ura-Leu medium” value ([3]; final concentration 20 ppm) of the same compound?
A: The value was 74%.

Q: What about the “Degree of growth of budding yeast TM182-StOS1 Gul-Ura-Leu medium” value ([3]; final concentration 20 ppm) of the same compound?
A: The value was 6%.

Q: How did the “Degree … (%) AH22 Glu medium” value ([1]; final concentration 0.2 ppm) turn out when `N#Cc1c[nH]cc1-c1cccc2c1OC(F)(F)O2` [Compound (6), Fludioxonil] was run?
A: The value was 92%.

Q: And the “Degree of growth of budding yeast AH22-StOS1 Glu-Leu medium” value ([2]; final concentration 0.2 ppm)?
A: The value was 93%.

Q: What about the “Degree of growth of budding yeast TM182-StOS1 Gal-Ura-Leu medium” value ([3]; final concentration 0.2 ppm) of the same compound?
A: The value was 97%.

Q: What about the “Degree of growth of budding yeast TM182-StOS1 Gul-Ura-Leu medium” value ([3]; final concentration 0.2 ppm) of the same compound?
A: The value was 6%.

Q: Which results are given for `N#Cc1c[nH]cc1-c1cccc(Cl)c1Cl` [Compound (7), Fenpiclonil]?
A: Degree of growth of budding yeast (%) AH22 Glu medium ([1]; final concentration 0.2 ppm): 91%; Degree of growth of budding yeast AH22-StOS1 Glu-Leu medium ([2]; final concentration 0.2 ppm): 91%; Degree of growth of budding yeast TM182-StOS1 Gal-Ura-Leu medium ([3]; final concentration 0.2 ppm): 91%; Degree of growth of budding yeast TM182-StOS1 Gul-Ura-Leu medium ([3]; final concentration 0.2 ppm): 9%

Q: For `C=CC1(C)OC(=O)N(c2cc(Cl)cc(Cl)c2)C1=O` (stereo not shown) [Compound (3), Vinclozolin], which “Degree … (%) AH22 Glu medium” value ([1]; final concentration 6 ppm) is on record?
A: Its value is 87%.

Q: What about the “Degree of growth of budding yeast AH22-StOS1 Glu-Leu medium” value ([2]; final concentration 0.6 ppm) of the same compound?
A: The value was 98%.

Q: And the “Degree of growth of budding yeast TM182-StOS1 Gal-Ura-Leu medium” value ([3]; final concentration 0.6 ppm)?
A: The value was 94%.

Q: What about the “Degree of growth of budding yeast TM182-StOS1 Gul-Ura-Leu medium” value ([3]; final concentration 0.6 ppm) of the same compound?
A: The value was 19%.
